Test results published in ChEMBL document CHEMBL1142466, “Itk kinase inhibitors: initial efforts to improve the metabolical stability and the cell activity of the benzimidazole lead” (Bioorg Med Chem Lett, 2008).

Key:
Insulin receptor = Insulin receptor (Homo sapiens, UniProt P06213); assay: Inhibition of IRK
[1] = molecular target: T1, Tyrosine-protein kinase ITK/TSK (Homo sapiens, UniProt Q08881); assay: Inhibition of recombinant ITK by DELFIA assay
T1 sequence (Q08881 whole entry): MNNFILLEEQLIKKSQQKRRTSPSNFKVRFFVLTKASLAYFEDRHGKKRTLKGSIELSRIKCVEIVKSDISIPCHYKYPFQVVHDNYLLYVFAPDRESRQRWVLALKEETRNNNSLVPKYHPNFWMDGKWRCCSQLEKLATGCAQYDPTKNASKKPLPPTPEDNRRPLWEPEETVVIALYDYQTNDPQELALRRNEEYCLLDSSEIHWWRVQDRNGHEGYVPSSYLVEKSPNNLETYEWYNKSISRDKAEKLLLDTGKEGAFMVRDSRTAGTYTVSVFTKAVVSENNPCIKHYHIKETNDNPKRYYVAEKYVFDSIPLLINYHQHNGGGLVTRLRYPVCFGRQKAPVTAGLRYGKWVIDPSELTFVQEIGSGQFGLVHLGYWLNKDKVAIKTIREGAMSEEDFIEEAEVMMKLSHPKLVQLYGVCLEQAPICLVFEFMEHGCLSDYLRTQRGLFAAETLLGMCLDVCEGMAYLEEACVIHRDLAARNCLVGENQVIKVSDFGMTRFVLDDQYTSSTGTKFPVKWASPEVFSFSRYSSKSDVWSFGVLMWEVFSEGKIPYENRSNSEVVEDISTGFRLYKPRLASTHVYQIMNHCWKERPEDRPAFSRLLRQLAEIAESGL

Cytochrome P450 2C9 = Cytochrome P450 2C9 (Homo sapiens, UniProt P11712); assay: Inhibition of CYP2C9; assay type: ADME
[2] = molecular target: Tyrosine-protein kinase Lyn (Homo sapiens, UniProt P07948); assay: Inhibition of Lyn
Cytochrome P450 3A4 = Cytochrome P450 3A4 (Homo sapiens, UniProt P08684); assay: Inhibition of CYP3A4; assay type: ADME
Jurkat = assay: Cytotoxicity against human JURKAT cells; assay type: functional; conditions: read-out: TC50 (the source's name)
[3] = molecular target: T2, Tyrosine-protein kinase TXK (Homo sapiens, UniProt P42681); assay: Inhibition of TXK
T2 sequence (P42681 whole entry): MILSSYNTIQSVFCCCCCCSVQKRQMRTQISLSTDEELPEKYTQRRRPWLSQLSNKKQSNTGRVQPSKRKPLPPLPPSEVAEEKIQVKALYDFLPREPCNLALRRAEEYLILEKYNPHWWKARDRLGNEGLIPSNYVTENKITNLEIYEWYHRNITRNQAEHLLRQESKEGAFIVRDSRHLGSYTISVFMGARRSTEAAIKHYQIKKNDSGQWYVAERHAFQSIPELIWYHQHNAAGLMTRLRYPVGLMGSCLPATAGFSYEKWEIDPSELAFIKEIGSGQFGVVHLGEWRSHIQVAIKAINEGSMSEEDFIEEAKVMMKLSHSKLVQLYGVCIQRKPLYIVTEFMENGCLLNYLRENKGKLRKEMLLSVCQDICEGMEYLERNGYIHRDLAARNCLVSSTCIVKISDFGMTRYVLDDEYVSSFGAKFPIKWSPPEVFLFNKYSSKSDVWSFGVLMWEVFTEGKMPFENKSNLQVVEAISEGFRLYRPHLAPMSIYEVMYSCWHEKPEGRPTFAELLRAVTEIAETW

[4] = molecular target: T3, Tyrosine-protein kinase Tec (Homo sapiens, UniProt P42680); assay: Inhibition of Tec kinase
T3 sequence (P42680 whole entry): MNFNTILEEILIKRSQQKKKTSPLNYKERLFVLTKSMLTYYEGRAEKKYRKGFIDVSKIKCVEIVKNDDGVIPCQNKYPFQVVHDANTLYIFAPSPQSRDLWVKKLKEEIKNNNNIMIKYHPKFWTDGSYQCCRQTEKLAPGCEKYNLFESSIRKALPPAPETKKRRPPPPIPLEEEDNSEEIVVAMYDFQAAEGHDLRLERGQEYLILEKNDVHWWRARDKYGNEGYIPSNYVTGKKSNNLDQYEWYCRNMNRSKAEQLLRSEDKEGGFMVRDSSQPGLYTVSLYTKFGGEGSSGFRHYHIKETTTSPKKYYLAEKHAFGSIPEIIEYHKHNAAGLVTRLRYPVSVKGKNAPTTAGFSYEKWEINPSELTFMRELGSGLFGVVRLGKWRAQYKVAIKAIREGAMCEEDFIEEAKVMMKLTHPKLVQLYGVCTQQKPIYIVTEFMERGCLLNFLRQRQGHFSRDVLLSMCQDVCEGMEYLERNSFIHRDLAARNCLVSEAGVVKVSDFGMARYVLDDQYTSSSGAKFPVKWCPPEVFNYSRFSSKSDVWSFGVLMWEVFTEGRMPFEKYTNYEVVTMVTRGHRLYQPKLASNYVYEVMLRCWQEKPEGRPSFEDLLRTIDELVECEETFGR

Mus musculus = assay: Inhibition of anti-CD3-induced IL2 production in sc dosed mouse; assay type: functional, organism-based

Cytochrome P450 2C9, sequence (P11712 whole entry): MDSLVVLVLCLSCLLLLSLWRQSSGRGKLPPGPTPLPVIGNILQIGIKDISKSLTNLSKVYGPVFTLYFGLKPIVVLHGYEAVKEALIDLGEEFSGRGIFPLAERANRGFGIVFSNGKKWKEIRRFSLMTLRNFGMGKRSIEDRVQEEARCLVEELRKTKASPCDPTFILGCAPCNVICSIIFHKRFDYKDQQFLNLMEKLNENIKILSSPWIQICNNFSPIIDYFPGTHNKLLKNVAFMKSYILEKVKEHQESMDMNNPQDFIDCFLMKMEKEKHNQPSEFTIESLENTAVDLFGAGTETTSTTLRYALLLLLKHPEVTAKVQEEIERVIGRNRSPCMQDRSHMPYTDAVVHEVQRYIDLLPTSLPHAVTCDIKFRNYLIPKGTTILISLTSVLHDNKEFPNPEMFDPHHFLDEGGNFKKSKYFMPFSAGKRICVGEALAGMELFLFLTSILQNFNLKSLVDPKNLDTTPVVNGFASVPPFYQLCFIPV
Cytochrome P450 3A4, sequence (P08684 whole entry): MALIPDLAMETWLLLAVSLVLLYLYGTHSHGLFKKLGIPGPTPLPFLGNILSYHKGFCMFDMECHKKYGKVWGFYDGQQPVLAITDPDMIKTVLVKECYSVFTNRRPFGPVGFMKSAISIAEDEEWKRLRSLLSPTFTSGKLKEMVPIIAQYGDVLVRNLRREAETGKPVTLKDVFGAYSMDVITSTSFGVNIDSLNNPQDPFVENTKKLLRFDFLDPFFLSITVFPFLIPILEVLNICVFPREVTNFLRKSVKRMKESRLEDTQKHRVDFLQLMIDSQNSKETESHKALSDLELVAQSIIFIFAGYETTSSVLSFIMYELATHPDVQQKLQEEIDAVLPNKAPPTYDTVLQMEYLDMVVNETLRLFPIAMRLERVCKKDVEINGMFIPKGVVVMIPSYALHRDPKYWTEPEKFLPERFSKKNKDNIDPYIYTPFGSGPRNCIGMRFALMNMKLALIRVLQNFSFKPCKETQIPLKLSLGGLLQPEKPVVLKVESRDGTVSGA
Insulin receptor, sequence (P06213 28-758 limits assumed): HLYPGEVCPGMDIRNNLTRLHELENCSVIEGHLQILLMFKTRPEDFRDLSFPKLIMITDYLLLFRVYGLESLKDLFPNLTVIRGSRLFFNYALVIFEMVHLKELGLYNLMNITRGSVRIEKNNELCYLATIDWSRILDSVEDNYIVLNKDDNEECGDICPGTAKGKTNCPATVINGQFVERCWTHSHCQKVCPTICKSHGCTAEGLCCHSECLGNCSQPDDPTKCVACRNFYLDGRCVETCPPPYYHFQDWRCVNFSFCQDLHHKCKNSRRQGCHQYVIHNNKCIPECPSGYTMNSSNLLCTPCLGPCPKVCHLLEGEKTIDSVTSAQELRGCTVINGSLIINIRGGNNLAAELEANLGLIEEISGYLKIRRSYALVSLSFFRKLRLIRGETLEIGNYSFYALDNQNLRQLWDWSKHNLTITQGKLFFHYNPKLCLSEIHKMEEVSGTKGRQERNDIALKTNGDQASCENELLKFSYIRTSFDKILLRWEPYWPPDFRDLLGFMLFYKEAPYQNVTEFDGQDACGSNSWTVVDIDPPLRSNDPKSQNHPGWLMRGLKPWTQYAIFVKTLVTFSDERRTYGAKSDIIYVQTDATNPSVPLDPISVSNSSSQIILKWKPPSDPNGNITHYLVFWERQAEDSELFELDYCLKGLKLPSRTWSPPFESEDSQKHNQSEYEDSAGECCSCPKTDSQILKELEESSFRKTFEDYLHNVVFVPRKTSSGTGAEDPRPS
Insulin receptor, sequence (P06213 763-1382 limits assumed): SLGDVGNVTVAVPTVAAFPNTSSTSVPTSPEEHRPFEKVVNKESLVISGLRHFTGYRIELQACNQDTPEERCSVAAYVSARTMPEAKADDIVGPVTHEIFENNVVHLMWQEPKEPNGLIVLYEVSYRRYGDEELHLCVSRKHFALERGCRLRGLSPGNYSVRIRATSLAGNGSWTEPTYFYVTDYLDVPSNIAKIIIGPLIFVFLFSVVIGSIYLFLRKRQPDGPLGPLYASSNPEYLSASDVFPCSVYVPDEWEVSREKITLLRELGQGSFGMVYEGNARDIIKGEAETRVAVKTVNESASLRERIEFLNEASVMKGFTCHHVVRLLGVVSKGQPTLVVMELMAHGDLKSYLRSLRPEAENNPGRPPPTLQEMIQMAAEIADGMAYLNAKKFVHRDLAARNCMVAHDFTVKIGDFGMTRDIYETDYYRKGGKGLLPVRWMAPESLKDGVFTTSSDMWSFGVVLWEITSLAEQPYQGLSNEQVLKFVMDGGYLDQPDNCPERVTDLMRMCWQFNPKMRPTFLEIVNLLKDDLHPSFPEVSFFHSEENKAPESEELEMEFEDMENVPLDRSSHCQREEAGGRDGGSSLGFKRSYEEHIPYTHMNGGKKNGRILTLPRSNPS
Tyrosine-protein kinase Lyn, sequence (P07948 whole entry): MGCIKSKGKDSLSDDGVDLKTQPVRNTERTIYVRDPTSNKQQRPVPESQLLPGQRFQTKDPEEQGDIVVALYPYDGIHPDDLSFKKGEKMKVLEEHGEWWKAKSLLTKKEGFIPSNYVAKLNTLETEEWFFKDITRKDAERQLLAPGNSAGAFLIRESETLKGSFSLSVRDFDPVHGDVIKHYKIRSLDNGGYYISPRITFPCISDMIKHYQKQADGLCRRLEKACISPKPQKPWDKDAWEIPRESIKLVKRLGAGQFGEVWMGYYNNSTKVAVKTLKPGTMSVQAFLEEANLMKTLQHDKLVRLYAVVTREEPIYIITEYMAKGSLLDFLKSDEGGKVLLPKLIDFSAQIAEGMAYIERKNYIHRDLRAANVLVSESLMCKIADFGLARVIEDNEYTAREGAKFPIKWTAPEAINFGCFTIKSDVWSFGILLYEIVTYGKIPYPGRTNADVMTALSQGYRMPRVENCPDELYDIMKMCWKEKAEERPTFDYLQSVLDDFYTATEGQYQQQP

SMILES | IC50 (Insulin receptor) [µM] | Activity (Cytochrome P450 2C9) [µM] | IC50 [2] [µM] | Activity (Cytochrome P450 3A4) [µM] | CC50 (Jurkat) [µM] | IC50 [3] [µM] | IC50 [4] [µM] | further results
CN(C(=O)c1ccccc1)c1ccc2c(c1)nc(NC(=O)c1ccc(C#N)nc1)n2CCC(N)=O | > 10 |  |  |  |  |  |  | 
CN(C(=O)c1ccccc1)c1ccc2c(c1)nc(NC(=O)c1ccoc1)n2CCC(N)=O | 0.32 |  |  |  |  |  |  | IC50 [1]: 0.01 µM
Cc1cc(C(=O)Nc2nc3cc(N(C)C(=O)c4ccccc4)ccc3n2CCC(N)=O)ccc1C#N | > 10 |  |  |  |  |  |  | 
CCN(C(=O)c1ccccc1)c1ccc2c(c1)nc(NC(=O)c1ccc(C#N)cc1)n2CCC(N)=O | > 10 | > 30 | > 10 | > 30 | > 10 | 0.31 | > 10 | 
CN(C(=O)c1ccccc1)c1ccc2c(c1)nc(NC(=O)c1ccno1)n2CCC(N)=O | > 10 |  |  |  |  |  |  | 
CC(=O)N1CCN(C(=O)c2cc(CSc3cnc(NC(=O)c4ccc(CNC(C)C(C)(C)C)cc4)s3)cc(C)c2C)CC1 (configuration not stated) |  |  |  |  |  |  |  | Activity (Mus musculus): Dose-dependent effect
CN(C(=O)c1ccccc1)c1ccc2c(c1)nc(NC(=O)c1ccc(C#N)cc1)n2CCC(N)=O | > 10 | > 30 | > 10 | > 30 | > 10 | 0.56 | > 10 | 
CN(C(=O)c1ccccc1)c1ccc2c(c1)nc(NC(=O)c1ccc(Cl)cc1)n2CCC(N)=O |  | > 30 | > 10 | > 30 | 5.8 | 0.5 | > 10 | 
CCN(C(=O)c1ccccc1)c1ccc2c(c1)nc(NC(=O)c1ccno1)n2CCC(N)=O |  |  |  |  |  |  |  | IC50 [1]: 0.027 µM
